Measurements from patent US11352349B2, “Type II topoisomerase inhibitors and methods of making and using thereof” (Ohio State Innovation Foundation, priority 2017, dated 2022).
In brackets after ≈: the same amount, converted by molar mass.

System: S. aureus ATCC 29213
Assay: MIC by broth microdilution (CLSI), quality control strain S. aureus ATCC 29213
Format: cell-based, Staphylococcus aureus
Settings: S. aureus ATCC 29213; multiple values when multiple MIC assays were conducted
Protocol: Minimum inhibitory concentrations were determined using the quality control strain S. aureus ATCC 29213 (Table 1) by the broth microdilution method according to guidelines of the Clinical and Laboratory Standards Institute (CLSI) (Cockerill, F. R.; et al., 2012, Methods for dilution antimicrobial susceptibility tests for bacteria that grow aerobically; approved standard-ninth edition. MA07-A9. Clinical and Laboratory Standard Institute, Wayne, Pa.). […] Published quality control ranges for gepotidacin and ciprofloxacin were used to validate each assay. MICs for selected compounds were also determined using a USA 300 strain of MRSA (Hidron, et al., Lancet Infect. Dis. 2009, 9:384-392). Vancomycin was used as an additional control.

| MIC 29213 [µg/mL] | SMILES |
| --- | --- |
| 32 (≈ 81.5 µM) | COc1ccc2nccc(CC[C@H]3OC[C@H](NC(=O)c4ccccc4)CO3)c2c1 [AB-0075, N-(2-(2-(6-methoxyquinolin-4-yl)ethyl)-trans-1,3-dioxan-5-yl)benzamide] |

Same assay, conditions: Staphylococcus aureus, ATCC29213, S. aureus ATCC 29213; multiple values when multiple MIC assays were conducted

| MIC [µg/mL] | SMILES |
| --- | --- |
| 4 (≈ 8.27 µM) | COc1ccc2ncc(=O)n(CC(O)[C@H]3OC[C@H](NCc4ccc5c(n4)NC(=O)CO5)CO3)c2c1 (relative stereo) [AB-0078, 6-(((2-(1-hydroxy-2-(7-methoxy-2-oxoquinoxalin-1(2H)-yl)ethyl)-trans-1,3-dioxan-5-yl)amino)methyl)-2H-pyrido[3,2-b][1,4]oxazin-3(4H)-one] |
| 8 (≈ 17.6 µM) | COc1ccc2ncc(=O)n(CC[C@H]3OC[C@H](NCc4cc5c(cn4)OCCO5)CO3)c2c1 [AB-0003, 1-(2-(5-(((2,3-dihydro-[1,4]dioxino[2,3-c]pyridin-7-yl)methyl)amino)-1,3-trans-dioxan-2-yl)ethyl)-7-methoxyquinoxalin-2(1H)-one] |
| 8 (≈ 17.7 µM) | COc1ccc2ncc(=O)n(CC[C@H]3OC[C@H](NCc4cc5c(cn4)OCCC5)CO3)c2c1 [AB-0006, 1-(2-(5-(((3,4-dihydro-2H-pyrano[2,3-c]pyridin-6-yl)methyl)amino)-trans-1,3-dioxan-2-yl)ethyl)-7-methoxyquinoxalin-2(1H)-one] |
| 4 (≈ 8.61 µM) | COc1ccc2ncc(=O)n(CC[C@H]3OC[C@H](NCc4ccc(Cl)c(Cl)c4)CO3)c2c1 [AB-0007, 1-(2-(5-((3,4-dichlorobenzyl)amino)-trans-1,3-dioxan-2-yl)ethyl)-7-methoxyquinoxalin-2(1H)-one] |
| ≤ 0.25 | COc1ccc2nccc(/C=C/[C@H]3OC[C@H](NCc4ccc(Cl)c(Cl)c4)CO3)c2c1 [AB-0009, N-(3,4-dichlorobenzyl)2-((E)-2-(6-methoxyquinolin-4-yl)vinyl)-trans-1,3-dioxan-5-amine] |
| 64 (≈ 154 µM) | COc1ccc2nccc(CC[C@H]3OC[C@H](NCc4cc(F)ccc4F)CO3)c2c1 [AB-0022, N-(2,5-difluorobenzyl)-2-(2-(6-methoxyquinolin-4-yl)ethyl)-trans-1,3-dioxan-5-amine] |
| 64 (≈ 154 µM) | COc1ccc2nccc(CC[C@H]3OC[C@H](NCc4ccc(F)c(F)c4)CO3)c2c1 [AB-0024, N-(3,4-difluorobenzyl)-2-(2-(6-methoxyquinolin-4-yl)ethyl)-trans-1,3-dioxan-5-amine] |
| > 64 | COc1ccc2nccc(CC[C@H]3OC[C@H](NCc4c(F)cccc4F)CO3)c2c1 [AB-0025, N-(2,6-difluorobenzyl)-2-(2-(6-methoxyquinolin-4-yl)ethyl)-trans-1,3-dioxan-5-amine] |
| 64 (≈ 159 µM) | COc1ccc2nccc(CC[C@H]3OC[C@H](NCc4cccc(C#N)c4)CO3)c2c1 [AB-0026, 3-(((2-(2-(6-methoxyquinolin-4-yl)ethyl)-trans-1,3-dioxan-5-yl)amino)methyl)benzonitrile] |
| > 64 | COc1ccc2nccc(CC[C@H]3OC[C@H](NCc4ccccc4OC)CO3)c2c1 [AB-0027, N-(2-methoxybenzyl)-2-(2-(6-methoxyquinolin-4-yl)ethyl)-trans-1,3-dioxan-5-amine] |
| 64 (≈ 154 µM) | COc1ccc2nccc(CC[C@H]3OC[C@H](NCc4cccc(F)c4F)CO3)c2c1 [AB-0028, N-(2,3-difluorobenzyl)-2-(2-(6-methoxyquinolin-4-yl)ethyl)-trans-1,3-dioxan-5-amine] |
| 16 (≈ 38.6 µM) | COc1ccc2nccc(CC[C@H]3OC[C@H](NCc4cc(F)cc(F)c4)CO3)c2c1 [AB-0029, N-(3,5-difluorobenzyl)-2-(2-(6-methoxyquinolin-4-yl)ethyl)-trans-1,3-dioxan-5-amine] |
| > 64 | COc1ccc2nccc(CC[C@H]3OC[C@H](NCc4ccccc4C)CO3)c2c1 [AB-0032, 2-(2-(6-methoxyquinolin-4-yl)ethyl)-N-(2-methylbenzyl)-trans-1,3-dioxan-5-amine] |
| > 64 | COc1ccc2nccc(CC[C@H]3OC[C@H](NCc4ccccc4F)CO3)c2c1 [AB-0033, N-(2-fluorobenzyl)-2-(2-(6-methoxyquinolin-4-yl)ethyl)-trans-1,3-dioxan-5-amine] |
| 16 (≈ 39.2 µM) | COc1cccc(CN[C@H]2CO[C@H](CCc3ccnc4ccc(OC)cc34)OC2)c1 [AB-0034, N-(3-methoxybenzyl)-2-(2-(6-methoxyquinolin-4-yl)ethyl)-trans-1,3-dioxan-5-amine] |
| > 64 | COc1ccc2nccc(CC[C@H]3OC[C@H](NCc4ccsc4)CO3)c2c1 [AB-0035, 2-(2-(6-methoxyquinolin-4-yl)ethyl)-N-(thiophen-3-ylmethyl)-trans-1,3-dioxan-5-amine] |
| > 64 | COc1ccc2nccc(CC[C@H]3OC[C@H](NCc4cccs4)CO3)c2c1 [AB-0036, 2-(2-(6-methoxyquinolin-4-yl)ethyl)-N-(thiophen-2-ylmethyl)-trans-1,3-dioxan-5-amine] |
| 32 (≈ 77.5 µM) | COc1ccc2nccc(CC[C@H]3OC[C@H](NCc4cccc(Cl)c4)CO3)c2c1 [AB-0037, N-(3-chlorobenzyl)-2-(2-(6-methoxyquinolin-4-yl)ethyl)-trans-1,3-dioxan-5-amine] |

| MIC [µg/mL] | SMILES |
| --- | --- |
| > 64 | COc1ccc2nccc(CC[C@H]3OC[C@H](NCc4ccccc4)CO3)c2c1 [AB-0038, N-benzyl-2-(2-(6-methoxyquinolin-4-yl)ethyl)-trans-1,3-dioxan-5-amine] |
| 64 (≈ 154 µM) | COc1ccc2nccc(CC[C@H]3OC[C@H](NCc4ccc(F)cc4F)CO3)c2c1 [AB-0039, N-(2,4-difluorobenzyl)-2-(2-(6-methoxyquinolin-4-yl)ethyl)-trans-1,3-dioxan-5-amine] |
| > 64 | COc1ccc2nccc(CC[C@H]3OC[C@H](NCc4cccc(OC)n4)CO3)c2c1 [AB-0040, N-((6-methoxypyridin-2-yl)methyl)-2-(2-(6-methoxyquinolin-4-yl)ethyl)-trans-1,3-dioxan-5-amine] |
| > 64 | COc1ccc2nccc(CC[C@H]3OC[C@H](NCc4ccc(F)cc4)CO3)c2c1 [AB-0041, N-(4-fluorobenzyl)-2-(2-(6-methoxyquinolin-4-yl)ethyl)-trans-1,3-dioxan-5-amine] |
| 16 (≈ 40.8 µM) | COc1ccc2nccc(CC[C@H]3OC[C@H](NCc4cccc(C)c4)CO3)c2c1 [AB-0042, 2-(2-(6-methoxyquinolin-4-yl)ethyl)-N-(3-methylbenzyl)-trans-1,3-dioxan-5-amine] |
| > 64 | COc1ccc2nccc(CC[C@H]3OC[C@H](NCc4ccccc4Cl)CO3)c2c1 [AB-0043, N-(2-chlorobenzyl)-2-(2-(6-methoxyquinolin-4-yl)ethyl)-trans-1,3-dioxan-5-amine] |
| 64 (≈ 163 µM) | COc1ccc2nccc(CC[C@H]3OC[C@H](NCCc4ccccc4)CO3)c2c1 [AB-0045, 2-(2-(6-methoxyquinolin-4-yl)ethyl)-N-phenethyl-trans-1,3-dioxan-5-amine] |
| 8 (≈ 21.1 µM) | COc1ccc2nccc(CC[C@H]3OC[C@H](NCc4ccccn4)CO3)c2c1 [AB-0048] |
| > 64 | COc1ccc2nccc(CC[C@H]3OC[C@H](NCc4cccnc4)CO3)c2c1 [AB-0049, 2-(2-(6-methoxyquinolin-4-yl)ethyl)-N-(pyridin-3-ylmethyl)-trans-1,3-dioxan-5-amine] |
| 32 (≈ 80.7 µM) | COc1ccc2nccc(CC[C@H]3OC[C@H](NCc4cccc(F)c4)CO3)c2c1 [AB-0050, N-(3-fluorobenzyl)-2-(2-(6-methoxyquinolin-4-yl)ethyl)-trans-1,3-dioxan-5-amine] |
| 32 (≈ 78.1 µM) | COc1ccc2nccc(CC[C@H]3OC[C@H](NCc4ccc(OC)nc4)CO3)c2c1 [AB-0056, N-((6-methoxypyridin-3-yl)methyl)-2-(2-(6-methoxyquinolin-4-yl)ethyl)-trans-1,3-dioxan-5-amine] |
| 8 (≈ 19.3 µM) | COc1ccc2nccc(CC[C@H]3OC[C@H](NCc4ccc(Cl)cn4)CO3)c2c1 [AB-0069, N-((5-chloropyridin-2-yl)methyl)-2-(2-(6-methoxyquinolin-4-yl)ethyl)-trans-1,3-dioxan-5-amine] |
| 4 (≈ 10.2 µM) | COc1ccc2nccc(CC[C@H]3OC[C@H](NCc4ccc(C)cn4)CO3)c2c1 [AB-0070, 2-(2-(6-methoxyquinolin-4-yl)ethyl)-N-((5-methylpyridin-2-yl)methyl)-trans-1,3-dioxan-5-amine] |
| 16 (≈ 40.8 µM) | COc1ccc2nccc(CC[C@H]3OC[C@H](NC(=O)c4ccccc4)CO3)c2c1 [AB-0075, N-(2-(2-(6-methoxyquinolin-4-yl)ethyl)-trans-1,3-dioxan-5-yl)benzamide] |
| 4 (≈ 9 µM) | COc1ccc2nccc(CC[C@H]3OC[C@H](NCc4ccc(OC(F)F)cc4)CO3)c2c1 [AB-0084, N-(4-(difluoromethoxy)benzyl)-2-(2-(6-methoxyquinolin-4-yl)ethyl)-trans-1,3-dioxan-5-amine] |
| 8 (≈ 17.8 µM) | COc1ccc2nccc(CC[C@H]3OC[C@H](NC(=O)c4ccc5c(c4)OCCO5)CO3)c2c1 [AB-0088, N-(2-(2-(6-methoxyquinolin-4-yl)ethyl)-trans-1,3-dioxan-5-yl)-2,3-dihydrobenzo[b][1,4]dioxine-6-carboxamide] |
| ≤ 0.5 | COc1ccc2nccc(CC[C@H]3OC[C@H](NC(=O)c4ccc(Cl)c(Cl)c4)CO3)c2c1 [AB-0089, 3,4-dichloro-N-(2-(2-(6-methoxyquinolin-4-yl)ethyl)-trans-1,3-dioxan-5-yl)benzamide] |

System: USA 300 strain of MRSA
Assay: MIC by broth microdilution, USA 300 strain of MRSA
Format: cell-based, Staphylococcus aureus
Settings: Staphylococcus aureus, multiple values when multiple MIC assays were conducted, read-out: MIC USA300
Protocol: Minimum inhibitory concentrations were determined using the quality control strain S. aureus ATCC 29213 (Table 1) by the broth microdilution method according to guidelines of the Clinical and Laboratory Standards Institute (CLSI) (Cockerill, F. R.; et al., 2012, Methods for dilution antimicrobial susceptibility tests for bacteria that grow aerobically; approved standard-ninth edition. MA07-A9. Clinical and Laboratory Standard Institute, Wayne, Pa.). […] MICs for selected compounds were also determined using a USA 300 strain of MRSA (Hidron, et al., Lancet Infect. Dis. 2009, 9:384-392). Vancomycin was used as an additional control.

| MIC [µg/mL] | SMILES |
| --- | --- |
| 0.5 (≈ 1.12 µM) | COc1ccc2nccc(/C=C/[C@H]3OC[C@H](NCc4ccc(Cl)c(Cl)c4)CO3)c2c1 [AB-0009, N-(3,4-dichlorobenzyl)2-((E)-2-(6-methoxyquinolin-4-yl)vinyl)-trans-1,3-dioxan-5-amine] |
| 1 (≈ 2.13 µM) | COc1ccc2ncc(=O)n(CC(O)[C@H]3OC[C@H](NCc4ccc5c(c4)OCCO5)CO3)c2c1 (stereo partly drawn) [AB-0076, 1-(2-(5-(((2,3-dihydrobenzo[b][1,4]dioxin-6-yl)methyl)amino)-trans-1,3-dioxan-2-yl)-2-hydroxyethyl)-7-methoxyquinoxalin-2(1H)-one] |
